Data on one compound can be found in ChEMBL document CHEMBL1201862, “PubChem BioAssay data set” (2004).

Active and inactive are the calls of the source. Bounds are passed on as bounds.

What all share (type): functional
The test system of test [1] is Vero. The test is described as follows: cells. Particulars: Chlorocebus sabaeus.
Test [2] in a line: loss of viability in HepG2 cells – cell-based, CellTiter-Glo, cherry-picked, cytotoxicity control for Shn3 inhibitor project, dose response (AID 624134). (Cellular ATP, detected with luciferase, serves as a proxy for viable cell number.)
Test [3] concerns the target T1, High affinity choline transporter 1 (Homo sapiens, UniProt Q9GZV3).
T1 sequence (Q9GZV3 whole entry): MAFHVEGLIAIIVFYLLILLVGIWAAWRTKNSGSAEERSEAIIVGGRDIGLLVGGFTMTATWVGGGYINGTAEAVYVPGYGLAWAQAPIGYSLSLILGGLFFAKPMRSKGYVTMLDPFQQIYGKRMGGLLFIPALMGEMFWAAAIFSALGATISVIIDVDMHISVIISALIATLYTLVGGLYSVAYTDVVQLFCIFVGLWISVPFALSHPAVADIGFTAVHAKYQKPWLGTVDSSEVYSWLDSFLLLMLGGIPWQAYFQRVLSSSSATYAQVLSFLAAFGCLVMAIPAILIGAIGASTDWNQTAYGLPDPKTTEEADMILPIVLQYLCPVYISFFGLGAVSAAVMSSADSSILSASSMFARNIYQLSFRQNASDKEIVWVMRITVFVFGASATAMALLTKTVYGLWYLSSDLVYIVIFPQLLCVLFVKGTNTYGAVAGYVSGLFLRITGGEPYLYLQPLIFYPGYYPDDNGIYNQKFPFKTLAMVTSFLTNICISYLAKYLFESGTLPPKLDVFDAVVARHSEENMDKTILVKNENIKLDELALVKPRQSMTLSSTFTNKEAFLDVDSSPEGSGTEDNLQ
The test is described as follows: human choline transporter blockers, potency – cell-based, 10-point CRC, membrane potential dye, dose response (AID 588401).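 Also: membrane potential dye fluorescence of choline-evoked depolarization via CHT.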

Test [4] can be described thus: reduction of Shn3 3'UTR-driven luciferase in osteoblasts – cell-based, Clone20 osteoblasts, firefly luciferase, cherry-picked, dose response (AID 624132).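 Also: firefly luciferase luminescence from reporter carrying the Shn3 3'UTR in osteoblasts.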
The target in test [5] is T2, Protein RecA (Mycobacterium tuberculosis, UniProt P9WHJ3).
T2 sequence (P9WHJ3 whole entry): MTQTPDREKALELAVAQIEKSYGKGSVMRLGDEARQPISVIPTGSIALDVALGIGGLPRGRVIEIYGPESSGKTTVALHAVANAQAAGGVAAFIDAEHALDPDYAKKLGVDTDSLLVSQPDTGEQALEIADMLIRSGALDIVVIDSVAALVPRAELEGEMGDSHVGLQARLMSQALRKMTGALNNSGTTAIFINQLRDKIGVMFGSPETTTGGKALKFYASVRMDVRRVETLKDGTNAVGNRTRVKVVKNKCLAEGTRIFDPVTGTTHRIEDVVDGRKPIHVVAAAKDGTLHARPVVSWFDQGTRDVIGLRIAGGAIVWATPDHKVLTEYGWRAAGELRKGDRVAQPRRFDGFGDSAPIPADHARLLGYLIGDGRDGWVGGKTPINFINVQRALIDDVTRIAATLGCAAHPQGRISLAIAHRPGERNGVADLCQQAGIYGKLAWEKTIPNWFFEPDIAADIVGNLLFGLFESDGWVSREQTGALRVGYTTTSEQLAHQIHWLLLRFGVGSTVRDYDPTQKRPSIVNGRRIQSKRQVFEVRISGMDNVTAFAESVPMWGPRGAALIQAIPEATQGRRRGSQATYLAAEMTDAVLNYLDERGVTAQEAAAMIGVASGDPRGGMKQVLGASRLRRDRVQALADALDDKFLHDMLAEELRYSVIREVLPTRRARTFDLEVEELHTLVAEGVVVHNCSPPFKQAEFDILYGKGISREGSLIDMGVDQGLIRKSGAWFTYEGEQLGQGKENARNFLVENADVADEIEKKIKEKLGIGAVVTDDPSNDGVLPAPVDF
In words: Fluorescence Cell-Free Homogeneous Dose Retest to Identify Inhibitors of RecA-Intein Splicing Activity. [Related pubchem assays (depositor defined):AID2097, AID2223, AID489010, AID492950].

In test [6] the target is T3, Replicative DNA helicase DnaB (Mycobacterium tuberculosis, UniProt P9WMR3).
T3 sequence (P9WMR3 whole entry): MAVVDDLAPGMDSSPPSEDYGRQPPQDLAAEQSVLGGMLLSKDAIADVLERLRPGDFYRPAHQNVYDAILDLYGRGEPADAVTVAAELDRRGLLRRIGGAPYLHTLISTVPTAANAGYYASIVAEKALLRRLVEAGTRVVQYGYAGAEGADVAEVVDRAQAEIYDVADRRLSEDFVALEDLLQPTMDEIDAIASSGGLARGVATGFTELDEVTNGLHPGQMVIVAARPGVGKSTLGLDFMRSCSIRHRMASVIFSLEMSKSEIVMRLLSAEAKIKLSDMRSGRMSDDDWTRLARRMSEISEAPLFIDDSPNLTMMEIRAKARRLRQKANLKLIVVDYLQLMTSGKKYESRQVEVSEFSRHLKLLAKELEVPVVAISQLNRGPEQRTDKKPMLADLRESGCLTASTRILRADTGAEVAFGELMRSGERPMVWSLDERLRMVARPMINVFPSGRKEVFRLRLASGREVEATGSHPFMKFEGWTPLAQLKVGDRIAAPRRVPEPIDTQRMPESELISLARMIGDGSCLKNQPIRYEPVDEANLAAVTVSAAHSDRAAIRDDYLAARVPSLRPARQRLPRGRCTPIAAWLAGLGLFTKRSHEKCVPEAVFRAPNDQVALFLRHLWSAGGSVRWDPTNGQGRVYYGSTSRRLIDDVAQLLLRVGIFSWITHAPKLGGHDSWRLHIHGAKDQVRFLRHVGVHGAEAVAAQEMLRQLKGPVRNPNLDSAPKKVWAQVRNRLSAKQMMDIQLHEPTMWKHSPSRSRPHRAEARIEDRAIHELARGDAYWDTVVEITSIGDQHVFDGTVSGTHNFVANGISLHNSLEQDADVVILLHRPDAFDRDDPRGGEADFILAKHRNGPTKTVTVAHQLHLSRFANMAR
In words: DnaB intein splicing inhibitors, dose response, biochemical, cell-free fluorescence (AID 449749).

A short description of test [7]: non-specific 3'UTR reporter inhibition in Clone20-Shn3RL – cell-based, Renilla luciferase, cherry-picked, counter-screen for Shn3 inhibitor project, dose response (AID 624133).
Test [8] has as its target T1, High affinity choline transporter 1. The test is described as follows: human choline transporter blockers, potency – cell-based, 5-point CRC, membrane potential dye, dose response (AID 504840).

As to `Cc1nnc(NC(=O)c2nc(S(=O)(=O)Cc3ccccc3)ncc2Cl)s1`, in test [1], the CC50 was 17.8 µM (active). Also, the AC50 in test [2] was > 70 µM (inactive); in test [4], 1.34 µM (active); in test [6], 17.8 µM (active); in test [7], 12.8 µM (active). The values for the IC50 in test [3] and in test [8] were 4.47 µM (active) and 7.31 µM (active), respectively. Also, the 50% effective concentration (EC50) in test [5] was 4.01 µM (active).

Broadly, the CC50 is the concentration giving 50% cytotoxicity. As a reminder, the AC50 is the midpoint of the concentration-response curve, whichever way the signal moves. The IC50 is the point on the concentration scale where inhibition reaches its midpoint. The EC50 is the concentration needed to bring the measured effect to its halfway point.
